Data as given in patent US8637670B2, “Imidazo [4,5-C]quinoline derivatives and their use in the treatment of tumors and/or inflammation” (Piramal Enterprises Limited, priority 2009, dated 2014).

What was measured:
[1] = tested on: PI3K α; assay: PI3K activity assay, cell-based ELISA of AKT (Ser 473) phosphorylation; settings: Homo sapiens, Ovarian cell line A2780, 20% FCS stimulation
Protocol: The assay was designed as in the reference, Biochemical Journal, 2000, 350, 717-722, the disclosure of which is incorporated by reference for the teaching of the assay.
Seed cells (Ovarian cell line A2780, ATCC) were plated in a 96 well microtitre plate at a density of 50,000 cells/cm^2 in appropriate complete cell culture medium. The cells were allowed to adhere for 18-24 hours. The cells were allowed to starve for 24 hours. The cells were pretreated (in triplicates) with the compounds of Example 1-40 (stock solution was prepared in DMSO and subsequent dilutions were made in kinase buffer) at a concentration of 10 μM for one hour. Then the cells were stimulated with 20% FCS for 30 minutes. A typical assay would consist of a set of unstimulated cells, a set of stimulated cells and a set of cells treated with compounds of Example 1-40 and a set of cells treated with the stimulator. The medium was discarded. The cells were fixed with 100 μL of 3.7% formaldehyde for 15 minutes. The formaldehyde was discarded by inverting the plate and tapping it on a thick tissue paper layer to remove traces. The cells were washed and permeabilized with 200 μL PBS+Triton-X 100 solution (hereafter referred to as PBS-Triton, containing 0.1% triton-X 100 in 1×PBS) three times, incubating the cells each time for 5 minutes. 100 μL blocking solution (10% FCS in PBS-Triton) was added and incubated for 1 hour at 25° C. The blocking solution was discarded and cells were incubated with the primary antibody in PBS-Triton at a dilution of 1:500 for 1 hour at RT (25° C.). [The primary antibody is Phospho-AKT (Ser 473); Cell Signaling; USA, Cat. No. 9271]. The primary antibody solution was discarded and the cells were washed 3 times with PBS-Triton solution and incubated with the HRP-conjugated secondary antibody in PBS-Triton at a dilution of 1:500 for 1 hour at RT (25° C.). The cells were washed 3 times with PBS-Triton followed by two washes with PBS (to remove traces of triton-X 100). The OPD (o-phenylene diamine dihydrochloride) substrate was prepared for detection of the signal by dissolving one tablet set (two tablets) of SigmaFast OPD (Sigma, USA, Cat No. P9187) in 20 mL distilled water. It should be kept protected from light. 100 μL OPD solutions was added to the wells and the plate was incubated in the dark for 3-5 minutes (depending upon the development of the color). The reaction was stopped by adding 50 μL 2 NH2SO4. The absorbance was measured at 490 nm. The values were expressed in the treated samples, in terms of percentage or fold decrease in AKT phosphorylation with respect to the induced sample. PI-103 (Calbiochem, USA) was used as a standard.

[2] = tested on: A2780; assay: Cytotoxicity, propidium iodide assay, A2780; format: cell-based; settings: Homo sapiens; Ovarian, A2780, 48 hours treatment; read-out: IC50, C3a (A2780)
Procedure, shortened: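 Cells seeded at 3000/well, grown 18–24 h at 37 °C/5% CO2, then exposed 48 h to compound dilutions from DMSO stock. Washed cells stained with 7 μg/ml propidium iodide, frozen at −70 °C ≥24 h, thawed and fluorescence read. Viability relative to untreated wells (100%); IC50 from plotted percentages.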

[3] = tested on: BxPC3; assay: Cytotoxicity, propidium iodide assay, BxPC3; format: cell-based; settings: Homo sapiens, BXPC-3; Pancreatic, BxPC3, 48 hours treatment; read-out: IC50, C5c (BxPC3)
Protocol: (§1) The assay was designed as in the reference, Anticancer Drugs, 2002, 13, 1-8, the disclosure of which is incorporated by reference for the teaching of the assay.
(§2) Cells from cell lines as mentioned in the table given below were seeded at a density of 3000 cells/well in a white opaque 96-well plate. Following incubation at 37° C./5% CO2 for a period of 18-24 hours, the cells were treated with various concentrations (stock solution was prepared in DMSO and subsequent dilutions were made in media as per ATCC guidelines) of the compounds of Example 1-40 was for a period of 48 hours. At the end of treatment, the spent culture medium was discarded, the cells were washed with 1×PBS and 200 μl of 7 μg/ml propidium iodide was added to each well. The plates were frozen at −70° C. for at least 24 hours. For analysis, the plates were brought to RT, allowed to thaw and were read in PoleStar fluorimeter with the fluorescence setting. The percentage of viable cells in the non-treated set of wells was considered to be 100 and the percentage viability following treatment was calculated accordingly. IC50 values were calculated from graphs plotted using these percentages. Table 4 depicts the IC50 values of compounds of Example 1-40 in individual cell lines.
(§3) The abbreviations for the Cell Lines as used in Table 4 are: […]

[4] = tested on: U 87 MG; assay: Cytotoxicity, propidium iodide assay, U 87 MG; format: cell-based; settings: Homo sapiens, Glioblastoma, 48 hours treatment, read-out: IC50, C7b (U 87 MG)
Protocol: as §1, §2, §3

[5] = tested on: MDA MB 231; assay: Cytotoxicity, propidium iodide assay, MDA MB 231; format: cell-based; settings: Homo sapiens; Breast, MDA MB 231, 48 hours treatment; read-out: IC50, C6a (MDA MB 231)
Protocol: as §1, §2, §3

[6] = tested on: MCF7; assay: Cytotoxicity, propidium iodide assay, MCF7; format: cell-based; settings: Homo sapiens; Breast, MCF7, 48 hours treatment; read-out: IC50, C6c (MCF7)
Protocol: as §1, §2, §3

[7] = tested on: BT 549; assay: Cytotoxicity, propidium iodide assay, BT 549; format: cell-based; settings: Homo sapiens; Breast, BT 549, 48 hours treatment; read-out: IC50, C6d (BT 549)
Protocol: as §1, §2, §3

[8] = tested on: T47D; assay: Cytotoxicity, propidium iodide assay, T47D; format: cell-based; settings: Homo sapiens, Breast, 48 hours treatment, read-out: IC50, C6e (T47D)
Protocol: as §1, §2, §3

SMILES	inhibition at 10 µM [1] [%]	IC50 [2] [nM]	IC50 [3] [nM]	IC50 [4] [nM]	IC50 [5] [nM]	IC50 [6] [nM]	IC50 [7] [nM]	IC50 [8] [nM]
Cc1cccc(S(=O)(=O)n2c(=O)n(-c3ccc(C(C)(C)C#N)cc3)c3c4cc(Br)ccc4ncc32)c1 [Example 3, 2-(4-(8-Bromo-2-oxo-3-(m-tolylsulfonyl)-2,3-dihydro-1H-imidazo[4,5-c]quinolin-1-yl)phenyl)-2-methylpropanenitrile]	10 to 50	≤ 1000	≤ 1000	1000 to 3000				
CC(C)(C#N)c1ccc(-n2c(=O)n(C(=O)c3ccccc3)c3cnc4ccc(Br)cc4c32)cc1 [Example 30, 2-(4-(3-Benzoyl-8-bromo-2-oxo-2,3-dihydro-1H-imidazo[4,5-c]quinolin-1-yl)phenyl)-2-methylpropanenitrile]	10 to 50	≤ 1000	≤ 1000					
C/C=C/C(=O)n1c(=O)n(-c2ccc(C(C)(C)C#N)cc2)c2c3cc(Br)ccc3ncc21 [Example 27, (E)-2-(4-(8-Bromo-3-but-2-enoyl-2-oxo-2,3-dihydro-1H-imidazo[4,5-c]quinolin-1-yl)phenyl)-2-methylpropanenitrile]	> 50	> 3000			≤ 1000	≤ 1000	≤ 1000	≤ 1000
C/C=C/C(=O)n1c(=O)n(-c2ccc(C(C)(C)C#N)cc2)c2c3cc(Cl)ccc3ncc21 [Example 38, (E)-2-(4-(3-But-2-enoyl-8-chloro-2-oxo-2,3-dihydro-1H-imidazo[4,5-c]quinolin-1-yl)phenyl)-2-methylpropanenitrile]	> 50	> 3000			≤ 1000	≤ 1000	≤ 1000	≤ 1000
CC(C)(C#N)c1ccc(-n2c(=O)n(C(=O)c3ccccc3)c3cnc4ccc(Cl)cc4c32)cc1 [Example 37, 2-(4-(3-Benzoyl-8-chloro-2-oxo-2,3-dihydro-1H-imidazo[4,5-c]quinolin-1-yl)phenyl)-2-methylpropanenitrile]				> 3000				
